Experimental data published in BindingDB's records for doi:10.1016/j.bmcl.2004.07.091 (Keio University, 2004).

Columns and labels:
[1] = target: beta-glucosidase (Rattus norvegicus); experiment: Inhibition of Beta-glucosidase of rat intestine; no inhibition
Beta-galactosidase = target: T1, Beta-galactosidase (Bos taurus, UniProt Q58D55); experiment: Inhibition of Beta-galactosidase of bovine liver; no inhibition
T1 sequence (Q58D55 whole entry): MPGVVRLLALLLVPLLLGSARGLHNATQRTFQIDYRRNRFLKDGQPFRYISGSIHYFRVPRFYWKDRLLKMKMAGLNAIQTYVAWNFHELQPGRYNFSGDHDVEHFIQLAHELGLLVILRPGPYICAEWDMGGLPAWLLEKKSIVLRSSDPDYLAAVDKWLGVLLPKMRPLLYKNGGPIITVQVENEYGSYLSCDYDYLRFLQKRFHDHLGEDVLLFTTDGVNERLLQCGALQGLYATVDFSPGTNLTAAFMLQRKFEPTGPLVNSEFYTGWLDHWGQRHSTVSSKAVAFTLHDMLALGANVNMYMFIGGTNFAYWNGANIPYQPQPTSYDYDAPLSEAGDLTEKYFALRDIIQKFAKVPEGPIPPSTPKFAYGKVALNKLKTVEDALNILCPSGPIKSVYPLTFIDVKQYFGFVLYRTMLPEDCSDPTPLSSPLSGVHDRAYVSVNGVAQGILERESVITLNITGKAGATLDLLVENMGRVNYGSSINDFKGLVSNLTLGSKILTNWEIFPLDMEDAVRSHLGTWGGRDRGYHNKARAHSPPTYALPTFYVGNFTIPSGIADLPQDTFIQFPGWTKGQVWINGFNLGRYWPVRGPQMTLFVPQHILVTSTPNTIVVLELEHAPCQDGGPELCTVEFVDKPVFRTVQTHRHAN

Structure (SMILES)	IC50 [1] [µM]	IC50 (Beta-galactosidase) [µM]
CCCCCCCCNC1CC(CO)C(O)C(O)C1O (stereo unspecified) [4-Hydroxymethyl-6-octylamino-cyclohexane-1,2,3-triol]	> 1000	
N[C@H]1C[C@H](CO)[C@@H](O)[C@H](O)[C@H]1O		> 1000
CO[C@@H]1CC2COC(C1O)[C@H]2NC1CC(CO)C(O)C(O)C1O (stereo partly drawn) [4-((3R,8S)-4-Hydroxy-3-methoxy-6-oxa-bicyclo[3.2.1]oct-8-ylamino)-6-hydroxymethyl-cyclohexane-1,2,3-triol]	> 1000	> 1000

Other lines, results leading:

IC50 [1] [µM]	IC50 (Beta-galactosidase) [µM]	Structure (SMILES)
	> 1000	CC(=O)NC1CC(CO)C(O)C(O)C1O (stereo unspecified) [N-(2,3,4-Trihydroxy-5-hydroxymethyl-cyclohexyl)-acetamide]
> 1000		C=C1CC(NCCCCCCCC)C(O)C(O)C1O (stereo unspecified) [4-Methylene-6-octylamino-cyclohexane-1,2,3-triol]
